Experimental data reported in patent US9381238B2 (priority 2010, dated 2016).

Experiments:
[1] = test system: H3N2 A/Moscow/10/99 virus; assay: Cytopathic effects induced by influenza virus on A549 cell layer (photon microscopy); type: cell-based, H3N2 A/Moscow/10/99 virus in human A549 cells; conditions: A549, 10 μM, MOI 2×10^−3, from 24 hpi onward, molecule added 14 h before infection and retained (FIG. 1)
Procedure: (§1) For all the following examples, the experiments were carried out at a temperature of 37° C. The culture medium used is DMEM (Ref 41966, Gibco), supplemented with trypsin (1 ug/mL, Sigma) during the infections.
A549 cells (ATCC, American Type Culture Collection CCL185) are cells derived from a lung carcinoma. […] Several ex-vivo studies on lung tissues from infected patients have shown that epithelial cells of this type probably constitute the primary influenza virus infection site (Nicholls et al. Nat. Med. 2007 February; 13(2):147-9, van Riel et al. Science. 2006 Apr. 21; 312(5772):399). These cells are therefore considered to be relevant for studying influenza viruses and are, consequently, very widely used in the field of fundamental research on influenza viruses.
The observation and monitoring of the cytopathic effects induced by the virus over time generally allow a first evaluation of the degree of infection of the cell layer. The cytopathic effect induced by the virus is characterized in particular by fusion of the infected cells with one another, forming multinucleated cell structures (syncytia). By photon microscopy, observation of the amount and of the scale of these structures on the cell layer makes it possible to obtain an estimation of the degree of infection.

[2] = test system: H3N2 A/Moscow/10/99 virus; assay: Infectious titer (TCID50/ml) in supernatant of infected A549 cells; type: cell-based, H3N2 A/Moscow/10/99 virus in human A549 cells; conditions: A549, from 24 hpi onward, presence vs absence of Nutlin-3 (FIG. 2A)
[3] = test system: H3N2 A/Moscow/10/99 virus; assay: Copies of viral genome M/ml in supernatant of infected A549 cells by real-time RT-qPCR; type: cell-based, H3N2 A/Moscow/10/99 virus in human A549 cells; conditions: for times more copies of genome in supernatant than control without Nutlin-3: A549, 10 hpi (single viral cycle); for times more copies M/ml of supernatant than the control: MOI 10^−3, pretreatment
Procedure: (§2) FIGS. 2 to 7 show the observed amounts of copies of viral genome M/ml in the culture supernatant (M for the segment of viral genome encoding the M1 and M2 viral proteins), with various culture conditions and after various infection times.
as §1
In order to gain a more precise idea, the quantification of the number of copies of viral genome M/ml of supernatant was then carried out, by extraction of the viral RNAs and quantification by real-time RT-qPCR (FIG. 2B). At 48 hpi, 6.66×10^6 copies M/ml were measured in the absence of Nutlin-3, compared with 2.44×10^8 copies M/ml in the presence of Nutlin-3, i.e. a gain of more than 36-fold in terms of viral production. The same calculation performed at 72 hpi indicates a gain of 88-fold in favor of the conditions where Nutlin-3 is used.
The A549 cells were infected with various amounts of virus (MOI 0.01, 0.1 and 1), in the presence or absence of Nutlin-3, and the amount of copies M/ml of supernatant was measured by RT-qPCR after a single viral cycle (10 hpi) or after several viral cycles (28 hpi). The cells were brought into contact with Nutlin-3, either 14 h before the infection (T=−14 h), or immediately at the time of infection (T=0 h) (FIG. 3). In any event, the Nutlin-3 is added in one go.
A similar experiment was carried out with an MOI of 10^−3, while modifying the time at which the pretreatment is carried out (14 h compared with 10 h before infection). At 48 hpi, Nutlin-3 makes it possible to obtain 1.5, 5.7 and 40 times more copies M/ml of supernatant than the control for respective concentrations of 0.1, 1 and 10 μM (FIG. 4).
This molecule was used at concentrations of 2 and 20 μM with an MOI of 10^−3.

[4] = test system: H3N2 A/Moscow/10/99 virus; assay: Copies of viral genome M/ml in supernatant of infected MDCK cells by RT-qPCR; type: cell-based, H3N2 A/Moscow/10/99 virus in MDCK cells (dog); conditions: MOI 10^−3, 0.1, 1 and 10 μM
Procedure: as §2, §1
The MDCK line (ATCC No. CCL-34) is the most widely used line for the laboratory production of influenza virus. It is a cell line which is also registered and with which batches of vaccine have been produced by Novartis and Solvay.
At 24 hpi, up to 19 times more copies of genome M/ml are obtained in the presence of Nutlin-3 compared with the control.

SMILES | cytopathic effect compared with infected cells without Nutlin-3 [1] | gain in infectious titer (TCID50/ml) in the supernatant [2] | times more copies of genome in supernatant than control without Nutlin-3 ([3]; treatment started at T=0, MOI 0.1 (FIG. 3)) [times] | times more copies of genome in supernatant than control without Nutlin-3 ([3]; treatment started at T=0, MOI 1 (FIG. 3)) [times] | gain in viral production (copies M/ml) vs absence of Nutlin-3 ([3]; A549, 48 hpi (FIG. 2B)) | times more copies M/ml of supernatant than the control ([3]; A549, 48 hpi, 0.1 μM (FIG. 4)) [times] | times more copies M/ml of supernatant than the control ([3]; A549, 48 hpi, 1 μM (FIG. 4)) [times] | times more copies M/ml of supernatant than the control ([3]; A549, 48 hpi, 10 μM (FIG. 4)) [times] | copies of viral genome M/ml of supernatant ([3]; A549, 48 hpi, in the presence of Nutlin-3 (FIG. 2B)) | gain in viral production (copies M/ml) vs absence of Nutlin-3 ([3]; A549, 72 hpi (FIG. 2B)) [fold] | times more copies of genome M/ml compared with the control ([4]; 24 hpi, pretreatment 14 h before infection (FIG. 5)) | effect on viral titer (copies of genome M/ml) in cell supernatants ([4]; pretreatment 14 h before infection, after several consecutive viral cycles (FIG. 5)) | times more copies of genome M in the supernatant compared with the control ([3]; A549, 48 hpi, MOI 10^−3, 2 μM (FIG. 6)) | times more copies of genome M in the supernatant compared with the control ([3]; A549, 72 hpi, MOI 10^−3, 20 μM (FIG. 6))
COc1ccc(C2=NC(c3ccc(Cl)cc3)C(c3ccc(Cl)cc3)N2C(=O)N2CCNC(=O)C2)c(OC(C)C)c1 (racemic) [Nutlin-3, (±)-4-[4,5-bis(4-chlorophenyl)-2-(2-isopropoxy-4-methoxy-phenyl)-4,5-dihydroimidazole-1-carbonyl]piperazin-2-one] | more marked cytopathic effect | gain of one log 10 difference | 11 | 50 | more than 36 fold | 1.5 | 5.7 | 40 | 2.44×10^8 copies M/ml | 88 | up to 19 times | greatly increases the viral titer |  | 
Cc1ccc2ccc(C(Nc3ccccc3)c3ccccc3)c(O)c2n1 (centres unmarked) [NSC66811, 2-methyl-7-[phenyl(phenylamino)methyl]-8-quinolinol] |  |  |  |  |  |  |  |  |  |  |  |  | approximately 6 times | approximately 5 times
